Measurements as given in patent publication US5736565A, “Therapeutic compounds suitable for the treatment of diseases connected with glutathione deficiency, process for their preparation, and pharmaceutical compositions containing same” (Prospa B.V., priority 1992, dated 1998).
Values joined by “and” are separate entries in the source; they are usually repeats but may differ in a detail not shown here. Equal values may be shown once. “Also recorded” adds a separate entry of the source. Peptide text beside a SMILES is read from it.

Assays:
hepatic GSH [1] = test: Test No. 1: protection from ethanol acute administration, hepatic GSH content; type: in vivo, male albino Wistar rats; parameters: GSH Content: unit not given beside the values; conditions: for GSH Content: liver, ethanol 3 g/kg i.p.
Protocol: Protection from ethanol acute administration […] Male albino Wistar rats weighing between 180 and 230 g were used. All animals were fasted for 24 hours prior to administration of isotonic solution, ethanol or ethanol combined with the test substances. As concerns the test substances, rats were intraperitoneally (i.p.) injected with compound of formula I (R=CH3) at doses of 10, 30, and 50 mg/kg and, for purposes of comparison, with the single constituents of compound (I) (R=CH3), […] (O-PRO) and L-cysteine (CIS), both at a 50 mg/kg dose. One hour after administration of the test substance, ethanol was injected i.p. at the dose of 3 g/kg. Thirty minutes later, the animals were sacrificed by decapitation and their liver was excised. […] Orwar et al., J. Chromatrogr., 556, 39-55 (1991).

hepatic GSH [2] = test: Test No. 4: dichloropropane (DCP) intoxication in vivo, hepatic GSH; parameters: species or system rat
Protocol: (§1) A test was carried out in vivo on four groups of four rats each, using, as a toxic substance, dichloropropane (DCP), the main constituent of several solvents. DCP is noxious both by ingestion and inhalation and has a notable toxicity to the liver, mediated by an almost total depletion of thiol groups, including those of GSH.
(§2) The experimental model involves the study of the effect of DCP toxicity in the rat, in respect of glutathione (GSH) concentration in the main target tissue: the liver.
(§3) Tests were carried out on four groups of rats. The first group of animals was administered 2 ml DCP/kg dissolved in oil (40% v/v) per os. Twenty-four hours after DCP administration, blood samples were taken for SGPT measurement, while the animals were sacrificed; small portions of liver were then excised and immediately deproteinized by homogenization in 6% PCA. The chromatographic analyses of GSH and GSSG (oxidized glutathione) were performed.
(§4) The second group of animals was treated with the test drug (600 mg/kg i.p.) two hours after DCP administration. The third and fourth groups were treated with N-acetyl-cysteine (NAC) (250 mg/kg i.p.) and, respectively, with glutathione (Tationil^R) (600 mg/kg i.p.).
An evaluation of the protective action of the test drug in respect of glutathione involvement in hepatic protection mechanisms was thus possible.

DCP toxicity in the rat = test: Test No. 4: dichloropropane (DCP) intoxication in vivo, death rate and signs; conditions: DCP-treated rats
Protocol: as §1, §2, §3, §4

interleukin-2 (IL-2) = test: Interleukin-2 (IL-2) production following interleukin-1 (IL-1) i.p. injection in young and old rats; type: in vivo, Sprague-Dawley rats; conditions: i.p. treated groups
Protocol: Sprague-Dawley rats (Charles River, Calco (CO)), aged 10 weeks (young adults) and 24 months (old), were stabled under standard conditions (24°±1° C., 12 h light/dark cycle, free access to food and water). Handlings were made in such a way as to avoid stressful stimuli.
The animals were stabled in groups of 6 per cage and treated for 2 weeks (15 days) with a PSC daily dose of 600 mg/kg by intraperitoneal route (i.p.).
With a view to evaluating a further aspect of the immunological activity in PSC-treated (600 mg/kg) animals, according to the aforementioned scheme, an investigation was carried out on interleukin-2 (IL-2) response to the injection of IL-1 that, as known, stimulates IL-2 production from lymphocytes.
Once the treatment was completed, each rat was administered IL-1 (0.1 mg/kg, i.p.). One hour after injection, the animals were killed by decapitation, the blood was collected and centrifuged, and the plasma maintained at -20° C. until IL-2 dosing.
The evaluation of IL-2 production was based on an immunological assay, utilizing a specific antibody produced in heterologous species against rat IL-2. Samples were assayed twice.
The controls are rats treated only with IL-1.

[3] = test system: murine fibrosarcoma cells (WEHI 164 clone 13); test: Transplantable neoplasms: murine fibrosarcoma tumoral mass growth in BALB/c mice; type: in vivo
Protocol: (§5) Male adult BALB/c mice weighing 20 g were stabled under standard conditions (24°±1° C., 12 h light/dark cycle, free access to food and water). Handlings were made in such a way as to avoid stressful stimuli.
All animals, subdivided into groups of 6, were treated 4 weeks with a PSC dose (600 mg/kg). After a 2 week treatment, the mice were inoculated intramuscularly (i.m.) with murine fibrosarcoma WEHI 164 clone 13 cells or Lewis lung carcinoma in an amount of 1×10^5 cells. Treatment was continued two weeks after tumour inoculation. The mice were sacrificed and the tumoral mass growth and the development of metastases, if any, were evaluated.

[4] = test system: Lewis lung carcinoma cells; test: Transplantable neoplasms: metastases development in BALB/c mice; type: in vivo
Protocol: as §5
All animals, subdivided into groups of 6, were treated 4 weeks with a PSC dose (600 mg/kg). […] Treatment was continued two weeks after tumour inoculation. The mice were sacrificed and the tumoral mass growth and the development of metastases, if any, were evaluated.

[5] = test system: urethane-induced tumours of the lungs; test: Urethane-induced tumours of the lungs in albino Swiss mice; type: in vivo
Protocol: Male albino adult Swiss mice (20-25 g) were used. All animals were inoculated i.p. with urethane. The animals were treated with PSC (600 mg/kg) 15 days prior to and after inoculation. Once the treatment was completed, the animals were sacrificed, their lungs excised and subjected to necrohistologic examination.

[6] = Behaviour and death rate of the test groups under PSC treatment; conditions: in vivo
[7] = 600 mg/kg i.p., 30 days' treatment, 15 days after inoculation
[8] = 600 mg/kg i.p., 30 days' treatment, 15 days after urethane i.p.

SMILES: CC(=O)SC[C@H](NC(=O)[C@@H]1CCC(=O)N1)C(=O)O [PSC, 2-(S)-(2-pyrrolidone-5-(S)-carbonyl amido)-3-acetylmercapto propionic acid] (HELM PEPTIDE1{[Glp].C}|PEPTIDE2{[ac]}$PEPTIDE1,PEPTIDE2,2:R3-1:R2$$$V2.0)
- hepatic glutathione formation (in words) (hepatic GSH [1]; ethanol-treated rats): enhances hepatic glutathione formation nearly to physiological levels
- GSH Content (hepatic GSH [1]; test substance 10 mg/kg i.p.): 3.6 ± 0.3
- GSH Content (hepatic GSH [1]; test substance 30 mg/kg i.p.): 4.3 ± 0.6
- GSH Content (hepatic GSH [1]; test substance 50 mg/kg): 5.8 ± 0.4
- normalization of hepatic GSH (in words) (hepatic GSH [2]; DCP-treated rats): could not normalize the values of hepatic GSH
- GSH, average values (hepatic GSH [2]; liver, DCP 2 ml/kg per os + 600 mg/kg i.p.): 2.7 nmol/mg protein
- GSH, individual animals (hepatic GSH [2]; liver, DCP 2 ml/kg per os + 600 mg/kg i.p., animals 1-4, listed as (I) (R = CH3), 600 mg/kg): 2.6 nmol/mg protein and 2.4 nmol/mg protein and 3.4 nmol/mg protein
- behavioural (torpor) and postural (ataxia) disorders (in words) (DCP toxicity in the rat): did not show any notable modification of said parameters
- death (in words) (DCP toxicity in the rat): no death occurred
- macroscopic examination of liver (in words) (DCP toxicity in the rat): showed liver parenchyma within standard limits
- coagulative disorders (in words) (DCP toxicity in the rat; merely qualitative examination): absent
- IL-2 levels (in words) (interleukin-2 (IL-2)): significant increases were detected in the groups treated i.p. with PSC
- tumoural growth, fibrosarcoma (in words) ([3]; 600 mg/kg): prevented tumoural growth; also recorded: significantly slows down the growth of fibrosarcomatous tumours in the rat
- Tumoral mass diameter, 15th day ([3]; 600 mg/kg i.p., 30 days' treatment): 0.6 ± 0.03 cm
- Mice with metastases, % [4, 7]: 33%
- Mice with metastases/group [4, 7]: 2/6
- metastatic process (in words) ([4]; mouse, in vivo): slows down the metastatic process
- Mice with neoplasms, % [5, 8]: 50%
- Mice with neoplasms/group [5, 8]: 3/6
- development of tumours of the lungs (in words) ([5]; chronic treatment): significantly slowed down the development of tumours of the lungs; also recorded: its action seems most potent on the tumours directly induced by contact with a chemical carcinogen, such as urethane
- behaviour and death rate of the test groups (in words) [6]: did not significantly affect the behaviour and death rate of the various test groups
- death in tested groups (in words) [6]: no death occurred in all tested groups
